Values after ≈ are worked out from the molar mass of the structure shown. Values joined by “and” are separate entries in the source; they are usually repeats but may differ in a detail not shown here. Identical values can stand only once.
Experiments:
[1] = system: Nurr1-regulated TH, VMAT2 and SOD2 mRNA in astrocytes (T98G); assay: Nurr1-regulated gene expression in T98G astrocytes (qPCR); type: cell-based, human; conditions: vs DMSO control
[2] = target: T1, human full-length Nurr1 monomer (NBRE) (Homo sapiens, UniProt P43354); assay: Full-length Nurr1 reporter gene assay (NBRE); type: cell-based; conditions: full-length human Nurr1 monomer, HEK293T
T1 construct: The full-length human nuclear receptor Nurr1 (pcDNA3.1-hNurr1-NE; Addgene plasmid #102363); host or cells: HEK293T
Description: (§1) Activation of full-length human Nurr1 was studied in transiently transfected HEK293T cells using the reporter plasmids pFR-Luc-NBRE[14], pFR-Luc-POMC[14] or pFR-Luc-DR5[14] each containing one copy of the respective human Nurr1 response element NBRE Nl3, NurRE, or DR5. The full-length human nuclear receptor Nurr1 (pcDNA3.1-hNurr1-NE; Addgene plasmid #102363) and, for DR5, RXRα (pSG5-hRXR)[57] were overexpressed. pRL-SV40 (Promega) was used for the normalization of transfection efficacy and to observe test compound toxicity. […] After 24 h, the medium was changed to Opti-MEM without supplements, and cells were transiently transfected using Lipofectamine LTX reagent (Invitrogen) according to the manufacturer’s protocol. Five hours after transfection, cells were incubated with the test compounds in Opti-MEM supplemented with penicillin (100 U/mL), streptomycin (100 μg/mL) and 0.1% DMSO for 16 h before luciferase activity was measured using the Dual-Glo Luciferase Assay System (Promega) according to the manufacturer’s protocol on a Tecan Spark luminometer (Tecan Deutschland GmbH). Firefly luminescence was divided by Renilla luminescence and multiplied by 1000 resulting in relative light units (RLU) to normalize for transfection efficiency and cell growth. Fold activation was obtained by dividing the mean RLU of the test compound by the mean RLU of the untreated control. All samples were tested in at least three biologically independent experiments in duplicates. For dose-response curve fitting and calculation of EC50 values, the equation “[Agonist] vs. response -- Variable slope (four parameters)” was used in GraphPad Prism (version 7.00, GraphPad Software).

[3] = system: human midbrain organoids from wildtype iPSC (isogenic control); assay: Midbrain organoid model, isogenic control; type: cell-based; conditions: immunostaining, fixed area
Aqueous solubility = type: physicochemical; conditions: water, 25 °C, read-out: aq. solubility
Method: The mixture was agitated in a VWR Thermal Shake lite (VWR International GmbH, Darmstadt, Germany) for 24 h at 600 rpm and a constant temperature of 25 °C. The supersaturated mixtures were subsequently centrifuged at 23.300 rpm for 15 min (25 °C). Part of the supernatant was taken off for quantification by UV absorbance at 312 nm with external calibration. The external calibration samples contained 1% DMSO and the test samples were spiked with DMSO to 1% concentration right before the measurement. Absorbance was measured with a Tecan Spark luminometer (Tecan Deutschland GmbH, Crailsheim, Germany). The solubility test was repeated in three independent experiments.

Nur77 = target: T2, Nur77 (Homo sapiens, UniProt P22736); assay: Gal4-Nur77 hybrid reporter gene assay; type: cell-based; conditions: HEK293T
T2 construct: chimeric receptors composed of the Gal4-DBD and the hinge region and LBD; expressed in transfected cells; host or cells: HEK293T
Method: Nurr1 modulation was determined in a Gal4 hybrid reporter gene assay in HEK293T cells (German Collection of Microorganisms and Cell Culture GmbH, DSMZ) using pFR-Luc (Stratagene, La Jolla, CA, USA; reporter), pRL-SV40 (Promega, Madison, WI, USA; internal control) and pFA-CMV-hNurr1-LBD[14], coding for the hinge region and ligand binding domain of the canonical isoform of human Nurr1. […] After 24 h, the medium was changed to Opti-MEM without supplements, and cells were transiently transfected using Lipofectamine LTX reagent (Invitrogen, Carlsbad, CA, USA) according to the manufacturer’s protocol. Five hours after transfection, cells were incubated with the test compounds in Opti-MEM supplemented with penicillin (100 U/mL), streptomycin (100 μg/mL), and 0.1% DMSO for 16 h before luciferase activity was measured using the Dual-Glo Luciferase Assay System (Promega) according to the manufacturer’s protocol on a Tecan Spark luminometer (Tecan Deutschland GmbH, Crailsheim, Germany). Firefly luminescence was divided by Renilla luminescence and multiplied by 1000 resulting in relative light units (RLU) to normalize for transfection efficiency and cell growth. Fold activation was obtained by dividing the mean RLU of the test compound by the mean RLU of the untreated control. All samples were tested in at least three biologically independent experiments in duplicates. For dose-response curve fitting and calculation of EC50 values, the equation “[Agonist] vs. response -- Variable slope (four parameters)” was used in GraphPad Prism (version 7.00, GraphPad Software, La Jolla, CA, USA). Selectivity profiling was performed with identical procedures using pFA-CMV-Nur77-LBD[14], pFA-CMV-NOR-1-LBD[14], pFA-CMV-THRα-LBD[51], pFA-CMV-RARα-LBD[52], pFA-CMV-PPARα-LBD[53], pFA-CMV-PPARγ-LBD[53], pFA-CMV-PPARδ-LBD[53], pFA-CMV-LXRα-LBD[54], pFA-CMV-FXR-LBD[55] and pFA-CMV-hRXRα-LBD[56].

[4] = target: T3, human full-length Nurr1 homodimer (NurRE) (Homo sapiens, UniProt P43354); assay: Full-length Nurr1 reporter gene assay (NurRE); type: cell-based; conditions: full-length human Nurr1 homodimer, HEK293T
T3 construct: The full-length human nuclear receptor Nurr1 (pcDNA3.1-hNurr1-NE; Addgene plasmid #102363); host or cells: HEK293T
Description: as §1

T1 sequence (P43354 whole entry): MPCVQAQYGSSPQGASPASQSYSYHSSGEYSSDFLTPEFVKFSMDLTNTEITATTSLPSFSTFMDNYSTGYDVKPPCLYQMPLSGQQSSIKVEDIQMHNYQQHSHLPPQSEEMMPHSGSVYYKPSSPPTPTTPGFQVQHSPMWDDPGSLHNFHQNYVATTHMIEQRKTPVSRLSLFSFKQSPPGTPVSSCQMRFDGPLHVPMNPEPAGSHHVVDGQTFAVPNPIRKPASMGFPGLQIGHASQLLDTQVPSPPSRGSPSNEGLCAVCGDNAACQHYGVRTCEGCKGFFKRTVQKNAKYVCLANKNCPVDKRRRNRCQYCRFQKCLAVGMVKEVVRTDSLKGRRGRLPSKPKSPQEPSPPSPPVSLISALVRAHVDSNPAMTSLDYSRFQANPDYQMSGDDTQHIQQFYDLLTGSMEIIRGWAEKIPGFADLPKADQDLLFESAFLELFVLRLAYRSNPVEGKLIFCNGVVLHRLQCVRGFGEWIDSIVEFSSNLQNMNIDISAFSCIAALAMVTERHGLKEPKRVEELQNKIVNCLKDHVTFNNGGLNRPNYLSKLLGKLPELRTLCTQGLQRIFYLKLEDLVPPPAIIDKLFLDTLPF
T3 sequence (P43354 whole entry): as above
T2 sequence (P22736 360-595 limits assumed): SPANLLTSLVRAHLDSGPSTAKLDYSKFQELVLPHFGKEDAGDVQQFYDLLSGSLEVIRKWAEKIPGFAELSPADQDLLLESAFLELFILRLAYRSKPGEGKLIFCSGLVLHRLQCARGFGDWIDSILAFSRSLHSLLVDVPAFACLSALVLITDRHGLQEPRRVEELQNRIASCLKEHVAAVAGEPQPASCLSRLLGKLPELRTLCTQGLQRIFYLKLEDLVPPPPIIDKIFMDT

EC50(NBRE) [2]	solubility at 24 h (Aqueous solubility)	EC50(Nur77) (Nur77)	EC50(NurRE) [4]	EC50 (Nur77)	EC50 [4]	Compound	SOD2 mRNA induction (mean) ([1]; 10 µM)	TH mRNA induction (mean) ([1]; 10 µM)	VMAT2 mRNA induction (mean) ([1]; 10 µM)	TH positive cells [3]	SOD2 mRNA induction (mean) ([1]; 0.1 µM)	TH mRNA induction (mean) ([1]; 0.1 µM)	VMAT2 mRNA induction (mean) ([1]; 0.1 µM)	SOD2 mRNA induction (mean) ([1]; 0.3 µM)	TH mRNA induction (mean) ([1]; 0.3 µM)	VMAT2 mRNA induction (mean) ([1]; 0.3 µM)
no activation (10 µM)	4.1 µg/mL (≈ 11.7 µM)	no activation (10 µM)	no activation (10 µM)			Cc1nc2c(Cl)cccn2c1NC(=O)c1ccc(-c2ccccc2)[nH]1 [Compound 29, N-(8-Chloro-2-methylimidazo[1,2-a]pyridin-3-yl)-5-phenyl-1H-pyrrole-2-carboxamide]	1.131 fold	1.042 fold	0.9124 fold	44 and 37 and 31 and 38						
no activation (1 µM)	6.8 µg/mL (≈ 17.2 µM)			330 ± 40 nM	94 ± 3 nM	Cc1nc2c(Cl)cccn2c1NC(=O)c1ccc(-c2ccc(N(C)C)cc2)o1 [Compound 36, N-(8-Chloro-2-methylimidazo[1,2-a]pyridin-3-yl)-5-(4-(dimethylamino)phenyl)furan-2-carboxamide]				47 and 50 and 45 and 41	1.308 fold	1.414 fold	1.925 fold	1.894 fold	1.603 fold	1.791 fold

From PMC11217349, “Development of Nurr1 agonists from amodiaquine by scaffold hopping and fragment growing” (Communications Chemistry, 2024)
